# From article PMC9646841, “A bead-based GPCR phosphorylation immunoassay for high-throughput ligand profiling and GRK inhibitor screening” (Communications Biology, 2022)
# Where “and” joins values, the source holds several entries; their conditions need not be identical. Equal entries are not always repeated. Square brackets hold non-standard residues; d marks the D form. Peptide text beside a SMILES is read from it. Cha = N[C@@H](CC1CCCCC1)C(=O)O; dCha = N[C@H](CC1CCCCC1)C(=O)O
# Tests used:
# Format in all cases: cell-based
# C5a1 [1] = biological target: T1, C5a1 (Homo sapiens, UniProt P21730); assay: pT324/pS327-C5a1 7TM phosphorylation assay; settings: for Emax: read-out: Emax (% Control C028) pT324/pS327-C5a1
# T1 construct: host or cells: Control-HEK293, ΔGRK2/3-HEK293, ΔGRK5/6-HEK293, stably expressing
# T1 sequence (P21730 1-350): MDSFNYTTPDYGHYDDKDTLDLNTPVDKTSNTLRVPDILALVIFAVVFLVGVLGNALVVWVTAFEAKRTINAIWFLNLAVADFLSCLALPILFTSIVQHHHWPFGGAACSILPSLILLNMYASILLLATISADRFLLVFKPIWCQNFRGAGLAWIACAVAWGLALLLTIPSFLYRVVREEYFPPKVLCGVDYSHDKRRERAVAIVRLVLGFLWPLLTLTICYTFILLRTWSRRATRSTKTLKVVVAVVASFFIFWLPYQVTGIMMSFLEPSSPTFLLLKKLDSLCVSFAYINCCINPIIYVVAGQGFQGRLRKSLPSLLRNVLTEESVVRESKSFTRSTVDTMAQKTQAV
# C5a1 [2] = biological target: T1, C5a1; assay: pS332/pS334-C5a1 7TM phosphorylation assay; settings: for Emax: read-out: Emax (% Control C028) pS332/pS334-C5a1
# C5a1 [3] = biological target: T1, C5a1; assay: pS338/pT339-C5a1 7TM phosphorylation assay; settings: for Emax: read-out: Emax (% Control C028) pS338/pT339-C5a1
# [4] = ΔGRK2/3-C5aR1-HEK293, C028 0.01 µM
# [5] = ΔGRK2/3-C5aR1-HEK293, C028 0.3 µM
# [6] = ΔGRK2/3-C5aR1-HEK293, C028 10 µM (concentration series)
# [7] = ΔGRK5/6-C5aR1-HEK293, C028 0.01 µM
# [8] = ΔGRK5/6-C5aR1-HEK293, C028 0.1 µM
# [9] = C028 0.01 µM, Control-C5aR1-HEK293
# [10] = C028 0.01 µM, ΔGRK2/3-C5aR1-HEK293
# [11] = C028 0.01 µM, ΔGRK5/6-C5aR1-HEK293
# [12] = C028 0.1 µM, ΔGRK5/6-C5aR1-HEK293
# [13] = C028 3 µM, Control-C5aR1-HEK293
# [14] = C028 10 µM, ΔGRK5/6-C5aR1-HEK293, concentration series
smiles,measurement,setting,value
"N=C(N)NCCC[C@@H](NC(=O)[C@H](CC1CCCCC1)NC(=O)[C@@H](CC1CCCCC1)NC(=O)[C@@H]1CCCN1C(=O)[C@H](CCCCN)NC(=O)[C@@H](N)Cc1ccccc1)C(=O)O [C028, FKP-(D-Cha)-Cha-r] (H-FKP[dCha][Cha][dR]-OH)",Emax,C5a1 [1]; Control-HEK293,100%
same,EC50,"C5a1 [1]; pEC50 pT324/pS327-C5a1, Control-HEK293",501 nM
same,EC50,"C5a1 [1]; pEC50 pT324/pS327-C5a1, ΔGRK2/3-HEK293",631 nM
same,"pT324/pS327-C5aR1 Phosphorylation Assay, raw signal",C5a1 [1]; [4],0.1906 and 0.2011 and 0.1388 and 0.1623 and 0.1923 and 0.1741 and 0.2414 and 0.2236
same,"pT324/pS327 phosphorylation, normalized",C5a1 [1]; [4],5.63% and 2.70% and -1.25% and 2.28% and 0.48% and 3.13% and 6.18% and 3.90%
same,"pT324/pS327-C5aR1 Phosphorylation Assay, raw signal","C5a1 [1]; ΔGRK2/3-C5aR1-HEK293, C028 0.1 µM",0.3121 and 0.3742 and 0.1921 and 0.224 and 0.2885 and 0.3186 and 0.3064
same,"pT324/pS327-C5aR1 Phosphorylation Assay, raw signal",C5a1 [1]; [5],0.5648 and 0.5979 and 0.3035 and 0.3146 and 0.4385 and 0.4523 and 0.4291 and 0.4848
same,"pT324/pS327 phosphorylation, normalized",C5a1 [1]; [5],24.79% and 33.69% and 32.00% and 35.01% and 19.88% and 27.63% and 33.40% and 34.58%
same,"pT324/pS327 phosphorylation, normalized","C5a1 [1]; ΔGRK2/3-C5aR1-HEK293, C028 1 µM",57.50% and 41.29% and 46.21% and 58.02% and 41.79% and 38.21% and 68.95% and 53.84%
same,"pT324/pS327-C5aR1 Phosphorylation Assay, raw signal","C5a1 [1]; ΔGRK2/3-C5aR1-HEK293, C028 3 µM",0.9175 and 0.9435 and 0.5986 and 0.5479 and 0.9015 and 0.9692 and 0.812 and 0.8433
same,"pT324/pS327-C5aR1 Phosphorylation Assay, raw signal",C5a1 [1]; [6],0.9308 and 0.9846 and 0.7517 and 0.6067 and 1.0697 and 0.9407 and 1.15 and 0.9163
same,"pT324/pS327 phosphorylation, normalized",C5a1 [1]; [6],96.12% and 84.19% and 64.50% and 63.55% and 84.08% and 59.71% and 82.71% and 58.42%
same,Emax,C5a1 [1]; ΔGRK2/3-HEK293,79.8%
same,"pT324/pS327-C5aR1 Phosphorylation Assay, raw signal",C5a1 [1]; [7],0.1198 and 0.124 and 0.1546 and 0.0999 and 0.1081 and 0.164 and 0.1821
same,"pT324/pS327 phosphorylation, normalized",C5a1 [1]; [7],-1.74% and -1.49% and 1.46% and 0.52% and 6.96% and 2.95% and -0.44% and 0.0738%
same,"pT324/pS327-C5aR1 Phosphorylation Assay, raw signal",C5a1 [1]; [8],0.1319 and 0.1326 and 0.1302 and 0.1434 and 0.1164 and 0.1306 and 0.173 and 0.1664
same,"pT324/pS327 phosphorylation, normalized",C5a1 [1]; [8],-0.96% and 0.29% and 1.64% and 0.38% and 2.18% and 3.49% and 1.29% and 7.61%
same,"pT324/pS327-C5aR1 Phosphorylation Assay, raw signal","C5a1 [1]; ΔGRK5/6-C5aR1-HEK293, C028 0.3 µM",0.1652 and 0.1629 and 0.1483 and 0.1906 and 0.1747 and 0.2126 and 0.1807
same,Emax,C5a1 [1]; ΔGRK5/6-HEK293,27.8%
same,OD405 max pS332/pS334-C5a1,C5a1 [2],1.06
same,OD405 min pS332/pS334-C5a1,C5a1 [2],0.11
same,pS332/pS334 normalized,"C5a1 [2]; Control-C5aR1-HEK293, C028 10 µM (concentration series)",95.44% and 132.42% and 80.61% and 80.15% and 121.12% and 109.12% and 102.49% and 106.48%
same,pS332/pS334 (raw signal),"C5a1 [2]; Control-C5aR1-HEK293 run beside the ΔGRK2/3 block, C028 10 µM",0.7901 and 0.7373 and 0.8202 and 0.7545 and 1.029 and 1.2201
same,Emax,C5a1 [2]; Control-HEK293,100%
same,EC50,"C5a1 [2]; pEC50 pS332/pS334-C5a1, Control-HEK293",398 nM
same,EC50,"C5a1 [2]; pEC50 pS332/pS334-C5a1, ΔGRK2/3-HEK293",501 nM
same,pS332/pS334 (raw signal),"C5a1 [2]; ΔGRK2/3-C5aR1-HEK293, C028 0.01 µM, concentration series",0.1764 and 0.1748 and 0.1484 and 0.1388 and 0.1181 and 0.1479 and 0.1441
same,pS332/pS334 (raw signal),"C5a1 [2]; ΔGRK2/3-C5aR1-HEK293, C028 1 µM, concentration series",0.699 and 0.3955 and 0.6071 and 0.387 and 0.4065 and 0.4411 and 0.6614 and 0.6847
same,pS332/pS334 (raw signal),"C5a1 [2]; ΔGRK2/3-C5aR1-HEK293, C028 10 µM, first 0/10 µM column pair",0.4715 and 0.6645 and 0.5267 and 0.3753 and 0.6914 and 0.6912 and 0.5711 and 0.6282
same,Emax,C5a1 [2]; ΔGRK2/3-HEK293,70.2%
same,Emax,C5a1 [2]; ΔGRK5/6-HEK293,50.8%
same,OD405 max pS338/pT339-C5a1,C5a1 [3],0.97
same,OD405 min pS338/pT339-C5a1,C5a1 [3],0.05
same,pS338/pS339 normalized,C5a1 [3]; [9],0.99% and 0.92% and 2.21% and 3.33% and 1.14% and 2.13% and -1.29% and -0.74%
same,"pS338/pS339 signal, raw",C5a1 [3]; [9],0.1155 and 0.1223 and 0.1459 and 0.1501 and 0.1235 and 0.1345 and 0.146 and 0.1476
same,pS338/pS339 normalized,C5a1 [3]; [10],2.29% and 0.59% and -0.76% and -0.97% and -2.55% and -1.82% and -0.06% and 0.89%
same,"pS338/pS339 signal, raw",C5a1 [3]; [10],0.0952 and 0.0932 and 0.1355 and 0.1425 and 0.1714 and 0.1765 and 0.119 and 0.1119
same,pS338/pS339 normalized,C5a1 [3]; [11],-0.52% and 1.83% and 5.79% and 7.02% and 0.41% and 6.78% and -2.15% and -0.66%
same,"pS338/pS339 signal, raw",C5a1 [3]; [11],0.1914 and 0.1791 and 0.1104 and 0.1268 and 0.0959 and 0.1124 and 0.1275 and 0.1571
same,"pS338/pS339 signal, raw","C5a1 [3]; C028 0.1 µM, Control-C5aR1-HEK293",0.1875 and 0.2099 and 0.2083 and 0.1715 and 0.263 and 0.2723 and 0.28 and 0.2721
same,pS338/pS339 normalized,"C5a1 [3]; C028 0.1 µM, ΔGRK2/3-C5aR1-HEK293",4.55% and 4.75% and 2.09% and -0.74% and 0.95% and 1.57% and 2.54% and 3.37%
same,pS338/pS339 normalized,C5a1 [3]; [12],6.77% and 12.22% and 6.57% and 4.14% and 6.71% and 9.50% and 2.76% and 5.82%
same,"pS338/pS339 signal, raw",C5a1 [3]; [12],0.1912 and 0.1825 and 0.1703 and 0.1709 and 0.1421 and 0.1595 and 0.2215 and 0.2673
same,pS338/pS339 normalized,C5a1 [3]; [13],78.61% and 86.74% and 85.12% and 75.44% and 123.11% and 90.88% and 72.00% and 99.45%
same,"pS338/pS339 signal, raw",C5a1 [3]; [13],0.8634 and 0.695 and 1.1554 and 0.7958 and 0.9051 and 1.0337 and 0.9787 and 0.9442
same,pS338/pS339 normalized,"C5a1 [3]; C028 10 µM, Control-C5aR1-HEK293, concentration series",92.58% and 105.20% and 87.15% and 107.72% and 114.82% and 97.73% and 96.48% and 106.05%
same,"pS338/pS339 signal, raw","C5a1 [3]; C028 10 µM, Control-C5aR1-HEK293, last 0/10 µM pair of Control block",0.8171 and 0.9223 and 0.6743 and 0.8573 and 1.0399 and 1.1081
same,"pS338/pS339 signal, raw","C5a1 [3]; C028 10 µM, Control-C5aR1-HEK293 beside ΔGRK5/6 block",1.1983 and 1.0585 and 0.7547 and 0.8921 and 1.3122 and 1.2783 and 1.4177 and 1.3015
same,pS338/pS339 normalized,C5a1 [3]; [14],60.81% and 85.60% and 54.29% and 47.10% and 52.27% and 73.34% and 65.73% and 72.42%
same,"pS338/pS339 signal, raw",C5a1 [3]; [14],0.6953 and 0.6053 and 0.6054 and 0.6811 and 0.925 and 0.7569 and 1.0104 and 1.1456
same,Emax,C5a1 [3]; Control-HEK293,100%
same,EC50,"C5a1 [3]; pEC50 pS338/pT339-C5a1, Control-HEK293",631 nM
same,EC50,"C5a1 [3]; pEC50 pS338/pT339-C5a1, ΔGRK2/3-HEK293",1000 nM
same,Emax,C5a1 [3]; ΔGRK2/3-HEK293,55.2%
same,Emax,C5a1 [3]; ΔGRK5/6-HEK293,63.9%
